In brackets after ≈: the same amount, converted by molar mass.
How the values were obtained:
[1] = system: K. pneumoniae EN0245; test: MIC; format: cell-based; details: in FdUrd+trimethoprim+uridine combination
[2] = system: K. pneumoniae EN010; test: MIC; format: cell-based, Klebsiella pneumoniae; details: in FdUrd+trimethoprim+uridine combination
[3] = system: S. epidermidis EN0456; test: MIC; format: cell-based, Staphylococcus epidermidis; details: in FdUrd+trimethoprim+uridine combination
[4] = system: A. baumannii EN017; test: MIC; format: cell-based, Acinetobacter baumannii; details: A. baumannii EN017; in FdUrd+trimethoprim+uridine combination
[5] = system: E. coli EN0235; format: cell-based
[6] = system: K. pneumoniae EN0233; test: MIC; format: cell-based; details: in FdUrd+trimethoprim+uridine combination
[7] = system: K. pneumoniae EN0437; test: MIC; format: cell-based; details: in FdUrd+trimethoprim+uridine combination
[8] = system: E. coli B EN0458; test: MIC; format: cell-based, Escherichia coli B; details: in FdUrd+trimethoprim+uridine combination
[9] = system: S. aureus EN008; test: MIC; format: cell-based, Staphylococcus aureus; details: in FdUrd+trimethoprim+uridine combination
[10] = system: Helicobacter pylori APV00918; test: MIC; format: cell-based; details: in FdUrd+trimethoprim+uridine combination
Excerpt: (§1) Inhibition of Heliobacter is important in view of increasing resistance and its association to gastric cancer.

[11] = system: Helicobacter pylori ATTC43504; test: MIC; format: cell-based; details: in FdUrd+trimethoprim+uridine combination
Excerpt: as §1

[12] = system: E. coli EN003; test: MIC; format: cell-based, Escherichia coli; details: in FdUrd+trimethoprim+uridine combination
[13] = system: P. aeruginosa EN0004; test: MIC; format: cell-based; details: in FdUrd+trimethoprim+uridine combination
[14] = system: E. coli EN0001; test: MIC; format: cell-based; details: in FdUrd+trimethoprim+uridine combination
[15] = system: S. sonnei APV00908; test: MIC; format: cell-based; details: S. sonnei APV00908; in FdUrd+trimethoprim+uridine combination
[16] = system: K. pneumoniae EN0463; test: MIC; format: cell-based, Klebsiella pneumoniae; details: in FdUrd+trimethoprim+uridine combination
[17] = system: K. pneumoniae EN006; test: MIC; format: cell-based, Klebsiella pneumoniae; details: in FdUrd+trimethoprim+uridine combination
[18] = system: E. coli EN013; test: MIC; format: cell-based, Escherichia coli; details: E. coli EN013; in FdUrd+trimethoprim+uridine combination; note: test concentration or dose not given here
[19] = system: A. baumannii EN0007; test: MIC; format: cell-based, A. baumanii; details: in FdUrd+trimethoprim+uridine combination
[20] = system: K. pneumoniae EN0436; test: MIC; format: cell-based; details: in FdUrd+trimethoprim+uridine combination
[21] = system: S. typhimurium EN0466; test: MIC; format: cell-based, Salmonella typhimurium; details: in FdUrd+trimethoprim+uridine combination
[22] = system: K. oxytoca EN0392; test: MIC; format: cell-based, Klebsiella oxytoca; details: in FdUrd+trimethoprim+uridine combination
[23] = system: E. coli EN012; test: MIC; format: cell-based, Escherichia coli; details: in FdUrd+trimethoprim+uridine combination
[24] = system: P. aeruginosa EN015; test: MIC; format: cell-based, Pseudomonas aeruginosa; details: P. aeruginosa EN015; in FdUrd+trimethoprim+uridine combination; note: test concentration or dose not given here
[25] = system: E. coli EN002; test: MIC; format: cell-based, Escherichia coli; details: in FdUrd+trimethoprim+uridine combination
[26] = system: K. pneumoniae EN0144; test: MIC; format: cell-based; details: in FdUrd+trimethoprim+uridine combination
[27] = system: K. pneumoniae EN0244; test: MIC; format: cell-based; details: in FdUrd+trimethoprim+uridine combination
[28] = system: K. pneumoniae EN0143; test: MIC; format: cell-based; details: in FdUrd+trimethoprim+uridine combination
[29] = system: K. pneumoniae EN0401; test: MIC; format: cell-based; details: in FdUrd+trimethoprim+uridine combination
[30] = system: S. flexneri APV00907; test: MIC; format: cell-based; details: S. flexneri APV00907; in FdUrd+trimethoprim+uridine combination
[31] = system: K. pneumoniae EN011; test: MIC; format: cell-based, Klebsiella pneumoniae; details: K. pneumoniae EN011; in FdUrd+trimethoprim+uridine combination; note: test concentration or dose not given here
[32] = system: K. pneumoniae EN0006; test: MIC; format: cell-based; details: in FdUrd+trimethoprim+uridine combination
[33] = system: S. flexneri APV00906; test: MIC; format: cell-based; details: S. flexneri APV00906; in FdUrd+trimethoprim+uridine combination
[34] = system: E. aerogenes EN0461; test: MIC; format: cell-based, Enterobacter aerogenes; details: in FdUrd+trimethoprim+uridine combination
[35] = system: P. aeruginosa EN0459; test: MIC; format: cell-based, Pseudomonas aeruginosa; details: in FdUrd+trimethoprim+uridine combination
[36] = system: P. mirabilis ST19 EN0445; test: MIC; format: cell-based, Proteus mirabilis; details: in FdUrd+trimethoprim+uridine combination
[37] = system: E. coli EN001; test: MIC; format: cell-based, Escherichia coli; details: in FdUrd+trimethoprim+uridine combination

With `O=c1[nH]c(=O)n([C@H]2C[C@H](O)[C@@H](CO)O2)cc1F` [FdUrd] the MIC [1] was over 4 µg/mL, the MIC [2] was 0.5 µg/mL and the MIC [3] was under 0.008 µg/mL. The MIC [4] was 0.5 µg/mL, the MIC [5] was 0.06 µg/mL (≈ 0.244 µM) and the MIC [6] was 0.5 µg/mL. For the same molecule, the MIC [7] was over 4 µg/mL, the MIC [8] was 0.032 µg/mL and the MIC [9] was under 0.008 µg/mL. The MIC [10] was 0.06 µg/mL, the MIC [11] was 0.06 µg/mL and the MIC [12] was 0.016 µg/mL. For the same molecule, the MIC [13] was over 4 µg/mL, the MIC [14] was 0.25 µg/mL and the MIC [15] was over 4 µg/mL. It also gave an MIC [16] of 0.25 µg/mL, an MIC [17] of 0.5 µg/mL and an MIC [18] of 0.016 µg/mL. For the same molecule, the MIC [19] was over 4 µg/mL, the MIC [20] was 0.25 µg/mL and the MIC [21] was 0.125 µg/mL. It also gave an MIC [22] of 0.125 µg/mL, an MIC [23] of 0.032 µg/mL and an MIC [24] of 1 µg/mL. It also gave an MIC [25] of 0.032 µg/mL, an MIC [26] of over 4 µg/mL and an MIC [27] of over 4 µg/mL. For the same molecule, the MIC [28] was over 4 µg/mL, the MIC [29] was over 4 µg/mL and the MIC [30] was over 4 µg/mL. The MIC [31] was 0.064 µg/mL, the MIC [32] was 0.5 µg/mL and the MIC [33] was over 4 µg/mL. For the same molecule, the MIC [34] was 1 µg/mL, the MIC [35] was over 4 µg/mL and the MIC [36] was 0.5 µg/mL. The MIC [37] was 0.125 µg/mL.

Reference: US10828316B2, “Method of treating bacterial infections” (priority 2016, dated 2020)
